Results from patent publication US20190125888A1, “TARGETED CONJUGATES AND PARTICLES AND FORMULATIONS THEREOF” (priority 2015, published 2019).
Where two headings read alike, the source gives them in different places.

Legend:
Half-life in rat plasma = format: in vitro ADME; details: read-out: rat plasma t½ (converted)
Description: (§1) Half-life (t1/2) of maytansinoid conjugates were measured in rat plasma and rat liver microsomes (LM). PK values of maytansinoid conjugates in NCI-H69 SCLC (small cell lung cancer) tumor cells were measured.

[1] = Pharmacokinetics study in mouse; details: in vivo
Description: Pharmacokinetics studies in mouse were also carried out. Half-life, Cmax and AUC values of Conjugate 6 were show in Table 10.

[2] = tested on: NCI-H69 SCLC (small cell lung cancer) tumor cells; experiment: H69 tumor PK; format: in vivo
Description: as §1

human NCI-H69 SCLC = experiment: H69 xenograft efficacy study, tumor growth inhibition; format: in vivo, mice; details: for TGI % Day 11 / TGI % Day 14 / TGI % Day 18 / TGI % Day 21 / TGI % Day 25: 0.7 mg/kg once weekly for two doses
Description: Applicants assessed the activity of maytansinoid conjugates in vivo. In these experiments, the ability of conjugates to affect the growth of human NCI-H69 SCLC was tested. For the in vivo study, 8 week old female NCR nude mice were inoculated subcutaneously into the right flank with 2 million cells in 1:1 RPMI 1640 (Invitrogen, Carlsbad, Calif.)/Matrigel® (BD Biosciences, San Jose, Calif.). Tumor measurements were taken twice weekly, using vernier calipers. Tumor volume was calculated using the formula: V=0.5×width×width×length.
When tumors approached a volume of 200 mm^3, mice were randomized into four groups of ten animals. Mice were treated with vehicle control (10% propylene glycol in water for injection) and maytansinoid conjugates (10% propylene glycol in water for injection). Final tumor volumes were analyzed using with a one-way analysis of variance and Tukey multiple comparison test.

[3] = Ligand charge of maytansinoid conjugates; format: physicochemical
[4] = Half-life in rat liver microsomes; format: in vitro ADME; details: read-out: rat LM t½ (mm)
Description: as §1

phospho-histone H3 = experiment: Phospho-histone H3 response in NCI-H69 tumors; format: in vivo, mice
Description: Phospho-histone H3 response in NCI-H69 tumors was measured. […] At 24 hour, adjusted phospho-histone H3 response for Conjugate 6 was about 500 (fluorescence signal) and at 48 hour it was about 2300 (fluorescence signal).

[5] = Chrom LogP of maytansinoid conjugates; format: physicochemical
human SSTR2 = human SSTR2 (Homo sapiens, UniProt P30874); experiment: Radioligand-receptor binding assay, [125I] somatostatin, membranes from SSTR2 expressing CHO-K1 cells
Chain of human SSTR2 (P30874 whole entry): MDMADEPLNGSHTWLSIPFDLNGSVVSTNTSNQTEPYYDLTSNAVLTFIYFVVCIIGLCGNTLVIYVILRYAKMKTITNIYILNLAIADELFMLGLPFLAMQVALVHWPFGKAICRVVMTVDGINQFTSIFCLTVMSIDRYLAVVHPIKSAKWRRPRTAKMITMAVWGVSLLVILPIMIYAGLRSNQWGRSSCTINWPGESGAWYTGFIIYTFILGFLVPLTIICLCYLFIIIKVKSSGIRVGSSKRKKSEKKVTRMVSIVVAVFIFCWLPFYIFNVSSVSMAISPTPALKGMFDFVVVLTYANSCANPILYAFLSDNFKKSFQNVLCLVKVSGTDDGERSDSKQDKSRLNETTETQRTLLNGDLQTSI
Method in brief: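 CHO-K1 SSTR2 membranes incubated 4 h with 0.03 nM [125I] somatostatin and conjugates in a 10-point, 6-fold series from 10 uM. Bound radioligand measured after filtration and washing; IC50 by non-linear least-squares regression.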

[6] = tested on: NCI-H524 (ATCC) human lung cancer cells; format: cell-based
Method in brief: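 NCI-H524 cells (5,000/well) exposed to conjugates for 6 hours, washed, then grown a further 66 hours; ten-point threefold dilutions from 20 μM. Proliferation by CellTiter-Glo versus vehicle; IC50 by four-parameter nonlinear regression, measured with and without octreotide competition.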

[7] = 1.3 mg/kg once weekly for two doses
[8] = 2 mg/kg once weekly for two doses
[9] = read-out: H524 IC50 6 h, 6 hours treatment, further 66 hours incubation
[10] = read-out: H524 IC50 with 100 μM octreotide 6 h, with 100 μM octreotide competition, 6 h treatment
[11] = 1.5 mg/kg once weekly for two doses

COc1cc2cc(c1Cl)N(C)C(=O)C[C@H](OC(=O)[C@H](C)N(C)C(=O)CCSSC(C)(C)[C@H](NC(=O)[C@@H]1CSSC[C@H](NC(=O)[C@H](N)Cc3ccccc3)C(=O)N[C@@H](Cc3ccc(O)cc3)C(=O)N[C@H](Cc3c[nH]c4ccccc34)C(=O)N[C@@H](CCCCN)C(=O)N[C@@H]([C@@H](C)O)C(=O)N1)C(N)=O)[C@]1(C)O[C@H]1[C@H](C)[C@@H]1C[C@@](O)(NC(=O)O1)[C@H](OC)/C=C/C=C(\C)C2 [Conjugate 6]
half-life (Half-life in rat plasma): 18.2 h | AUC(0-inf) [1]: 4.45 µM·h | Cmax [1]: 3 µM | half-life ([1]; read-out: t½ (converted)): 2.05 h | H69 tumor PK normalized- uM/umol/kg at 1 mpk in 10% PG [2]: Ca. 0.420 uM/umol/kg | TGI % at day 33 (human NCI-H69 SCLC; 0.7 mg/kg once weekly for three doses, day 33): 31.9% | TGI % Day 11 (human NCI-H69 SCLC): 55% | TGI % Day 14 (human NCI-H69 SCLC): 60% | TGI % Day 18 (human NCI-H69 SCLC): 65% | TGI % Day 21 (human NCI-H69 SCLC): 69% | TGI % Day 25 (human NCI-H69 SCLC): 59% | TGI % Day 13 (human NCI-H69 SCLC; [7]): 69.1% | TGI % Day 17 (human NCI-H69 SCLC; [7]): 75.6% | TGI % Day 20 (human NCI-H69 SCLC; [7]): 76.8% | TGI % Day 24 (human NCI-H69 SCLC; [7]): 72.7% | TGI % Day 30 (human NCI-H69 SCLC; [7]): 72.1% | TGI % Day 13 (human NCI-H69 SCLC; [8]): 93.4% | TGI % Day 17 (human NCI-H69 SCLC; [8]): 96.2% | TGI % Day 20 (human NCI-H69 SCLC; [8]): 98.2% | TGI % Day 24 (human NCI-H69 SCLC; [8]): 99.5% | TGI % Day 30 (human NCI-H69 SCLC; [8]): 99.9% | TGI % at day 22 (human NCI-H69 SCLC; Dose 0.63 × 3 mg/kg, total dose 1.89 mg/kg): 47% | TGI % at day 22 (human NCI-H69 SCLC; Dose 0.65 × 2 mg/kg, total dose 1.3 mg/kg): 69% | TGI % at day 22 (human NCI-H69 SCLC; Dose 1.2 × 2 mg/kg, total dose 2.4 mg/kg): 77% | TGI % at day 22 (human NCI-H69 SCLC; Dose 2.0 × 2 mg/kg, total dose 4.0 mg/kg): 98% | Ligand charge [3]: +2 | half-life [4]: 2.97 h | adjusted phospho-histone H3 response (phospho-histone H3; at 24 hour): about 500 fluorescence signal | adjusted phospho-histone H3 response (phospho-histone H3; at 48 hour): about 2300 fluorescence signal | chromatographic logP [5]: 2.06 | Ki (human SSTR2): 0.021 nM | IC50 [6, 9]: 13 nM | IC50 [6, 10]: 545 nM

COc1cc2cc(c1Cl)N(C)C(=O)C[C@H](OC(=O)[C@H](C)N(C)C(=O)CCSSC(C)(C)[C@H](NC(=O)[C@@H]1CSSC[C@H](NC(=O)[C@@H](Cc3ccccc3)NS(C)(=O)=O)C(=O)N[C@@H](Cc3ccc(O)cc3)C(=O)N[C@H](Cc3c[nH]c4ccccc34)C(=O)N[C@@H](CCCCN)C(=O)N[C@@H]([C@@H](C)O)C(=O)N1)C(N)=O)[C@]1(C)O[C@H]1[C@H](C)[C@@H]1C[C@@](O)(NC(=O)O1)[C@H](OC)/C=C/C=C(\C)C2 [Conjugate 10]
H69 tumor PK normalized- uM/umol/kg at 1 mpk in 10% PG [2]: 0.546 uM/umol/kg | TGI % Day 11 (human NCI-H69 SCLC): 48% | TGI % Day 14 (human NCI-H69 SCLC): 59% | TGI % Day 18 (human NCI-H69 SCLC): 54% | TGI % Day 21 (human NCI-H69 SCLC): 53% | TGI % Day 25 (human NCI-H69 SCLC): 42% | TGI % Day 13 (human NCI-H69 SCLC; [11]): 92.2% | TGI % Day 17 (human NCI-H69 SCLC; [11]): 95.6% | TGI % Day 20 (human NCI-H69 SCLC; [11]): 97.8% | TGI % Day 24 (human NCI-H69 SCLC; [11]): 99.5% | TGI % Day 30 (human NCI-H69 SCLC; [11]): 99.6% | TGI % at day 22 (human NCI-H69 SCLC; Dose 0.60 × 2 mg/kg, total dose 1.20 mg/kg): 53% | TGI % at day 22 (human NCI-H69 SCLC; Dose 1.54 × 2 mg/kg, total dose 3.08 mg/kg): 98% | Ligand charge [3]: +1 | chromatographic logP [5]: 2.66 | Ki (human SSTR2): 0.035 nM | IC50 [6, 9]: 3.3 nM | IC50 [6, 10]: 246 nM
